Our source for the IC50 values is patent publication US20220356174A1, “PYRIDIN-2-ONE COMPOUNDS USEFUL AS SMARCA2 ANTAGONISTS” (Epizyme, Inc., priority 2018, published 2022).

T1 sequence (P51531 with tags, fused parts or gaps): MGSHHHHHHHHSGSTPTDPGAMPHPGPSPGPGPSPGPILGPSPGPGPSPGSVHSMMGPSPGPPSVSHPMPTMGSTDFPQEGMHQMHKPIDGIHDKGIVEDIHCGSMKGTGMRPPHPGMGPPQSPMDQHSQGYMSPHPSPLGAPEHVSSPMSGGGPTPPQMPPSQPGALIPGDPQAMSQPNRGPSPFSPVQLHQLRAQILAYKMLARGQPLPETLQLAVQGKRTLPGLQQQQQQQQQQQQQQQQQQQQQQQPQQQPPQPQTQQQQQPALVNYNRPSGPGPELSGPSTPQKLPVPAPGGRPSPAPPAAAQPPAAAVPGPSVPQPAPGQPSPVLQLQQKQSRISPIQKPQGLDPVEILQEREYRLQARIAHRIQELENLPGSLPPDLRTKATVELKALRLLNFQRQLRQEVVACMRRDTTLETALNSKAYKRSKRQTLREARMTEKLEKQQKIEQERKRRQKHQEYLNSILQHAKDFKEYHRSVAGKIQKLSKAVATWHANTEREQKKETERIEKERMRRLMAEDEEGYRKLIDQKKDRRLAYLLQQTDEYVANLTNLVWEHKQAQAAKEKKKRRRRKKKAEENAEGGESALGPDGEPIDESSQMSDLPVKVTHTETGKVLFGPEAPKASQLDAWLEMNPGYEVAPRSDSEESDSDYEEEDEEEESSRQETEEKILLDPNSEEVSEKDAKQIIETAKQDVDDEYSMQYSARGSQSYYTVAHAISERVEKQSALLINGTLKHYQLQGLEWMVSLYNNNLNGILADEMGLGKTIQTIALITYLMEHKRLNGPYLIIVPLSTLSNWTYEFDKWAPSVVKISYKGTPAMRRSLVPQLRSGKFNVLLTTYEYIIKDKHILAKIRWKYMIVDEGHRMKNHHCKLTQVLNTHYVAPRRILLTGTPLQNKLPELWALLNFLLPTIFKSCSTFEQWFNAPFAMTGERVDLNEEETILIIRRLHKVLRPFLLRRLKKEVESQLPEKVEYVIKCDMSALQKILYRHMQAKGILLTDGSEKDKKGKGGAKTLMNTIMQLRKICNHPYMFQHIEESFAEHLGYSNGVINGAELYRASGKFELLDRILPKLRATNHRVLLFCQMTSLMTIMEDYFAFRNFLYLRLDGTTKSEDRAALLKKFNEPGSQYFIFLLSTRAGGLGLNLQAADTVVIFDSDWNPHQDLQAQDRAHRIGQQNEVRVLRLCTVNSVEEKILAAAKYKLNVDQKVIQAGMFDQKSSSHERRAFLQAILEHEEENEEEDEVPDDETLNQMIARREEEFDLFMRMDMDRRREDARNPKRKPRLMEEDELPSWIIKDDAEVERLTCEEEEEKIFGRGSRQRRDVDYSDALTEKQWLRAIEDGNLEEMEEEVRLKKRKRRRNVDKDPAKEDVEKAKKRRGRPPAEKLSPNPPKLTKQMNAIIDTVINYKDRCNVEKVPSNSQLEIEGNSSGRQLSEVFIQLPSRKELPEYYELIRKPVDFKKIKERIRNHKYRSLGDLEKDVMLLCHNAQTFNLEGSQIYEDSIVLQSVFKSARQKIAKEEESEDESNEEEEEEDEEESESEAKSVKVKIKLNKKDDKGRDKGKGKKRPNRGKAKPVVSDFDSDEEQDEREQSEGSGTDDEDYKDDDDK

One assay has as its target T1, FL-SMARCA2 (full-length human SMARCA2 isoform 1) (Homo sapiens, UniProt P51531).
T1 construct: FLAG tag (YKDDDDK) (C); made in house; host or cells: Sf21 insect cells (baculovirus, pFastBacI)
The assay can be described thus: SMARCA2 ATPase activity assay (ADP-Glo, chicken mononucleosome substrate). The assay is classed as biochemical. The note with it: Table 3a.1; SMARCA2 5 nM, ATP 250 uM, mononucleosome 10 nM. On the technique in general: ADP-Glo first removes unused ATP, then detects ADP through luciferase.
For orientation: IC50 means the concentration that inhibits the measured activity by half. The compound `CN1CCN(C(=O)Nc2cc(F)c(=O)n(CCF)c2)CC1=O` [Compound 54a] gave a half-inhibitory concentration (IC50) of more than 50000 nM.
Still for that read-out and setting: the value for `CN1CC(C(=O)Nc2cc(F)c(=O)n(CCF)c2)CC1=O` (stereo not shown) [Compound 51a] was more than 50000 nM; that for `CCn1cc(NC(=O)n2ncc3ccccc32)ccc1=O` [Compound 31a] was more than 50000 nM.

Staying with this assay, now noted: Table 3b.1; SMARCA2 5 nM, ATP 250 uM, mononucleosome 10 nM.
In the case of `CCn1cc(NC(=O)[C@@H]2CCC[C@@H](Cl)C2)ccc1=O` [Compound 14b], the IC50 is more than 50000 nM.

Staying with this assay, now noted: Table 3c.1; ATPase assay, enzyme 5 nM, ATP 250 uM, chicken mononucleosome 10 nM, 30 min preincubation.
`Cn1ccc(-c2cc(NC(=O)c3sc(C(F)(F)F)cc3Cl)cn(CC(F)F)c2=O)n1` [Compound 19c] came in with an IC50 of more than 50000 nM.
The same measure, in the same setting: then `O=C(Nc1cc(F)c(=O)n(CC(F)F)c1)c1cc(C#Cc2ccncc2)cs1` [Compound 23c], with 173 nM.
Same read-out and setting: the value for `O=C(Nc1cc(F)c(=O)n(CC(F)F)c1)C1CCC(C(F)(F)F)O1` (stereo not shown) [Compound 135c] was 39500 nM.

Still in this assay, the particulars now being: Table 3.1; ATPase assay, enzyme 5 nM, ATP 250 uM, chicken mononucleosome 10 nM, 30 min preincubation.
`N#Cc1cc(C(=O)Nc2cc(F)c(=O)n(CC(F)(F)F)c2)sc1Cl` [Compound 207] registered an IC50 of 72.9 nM.
The same measure, in the same setting: the value for `N#Cc1[nH]c(C(=O)Nc2cc(Cl)c(=O)n(CC(F)(F)F)c2)cc1Cl` [Compound 237] was 201 nM; that for `N#Cc1cc(C(=O)Nc2ccc(=O)n(CCF)c2)sc1C#N` [Compound 182] was 35.5 nM.
Same read-out and setting: then `CCn1cc(NC(=O)c2cc(Cl)c(C#N)[nH]2)cc(Cl)c1=O` [Compound 236], with 125 nM; and `N#Cc1[nH]c(C(=O)Nc2cc(F)c(=O)n(CC(F)(F)F)c2)cc1Cl` [Compound 242], with 38.9 nM; and `O=C(Nc1cc(C(F)(F)F)c(=O)n(CC(F)F)c1)c1cc(F)c(Cl)s1` [Compound 336], with 1240 nM.
In turn, `O=C(Nc1cc(F)c(=O)n(CCF)c1)c1cnc([N+](=O)[O-])s1` [Compound 275] came in with an IC50 of 381 nM.
As for `N#Cc1cc(NC(=O)c2cc(F)c(Cl)s2)cn(CC(F)F)c1=O` [Compound 338], the IC50 stood at 89 nM.
The same measure, in the same setting: then `NS(=O)(=O)c1cc(C(=O)Nc2cc(F)c(=O)n(CCF)c2)sc1Cl` [Compound 310], with more than 50000 nM.
Consider `N#Cc1sc(C(=O)Nc2ccc(=O)n(CCF)c2)cc1Cl` [Compound 132], for which the IC50 amounted to 142 nM.
Still for that read-out and setting: then `CCn1cc(NC(=O)c2cc(OC)c(Cl)s2)ccc1=O` [Compound 74], with 17200 nM.
For the compound `CCn1cc(NC(=O)c2nc(Br)sc2C)ccc1=O` [Compound 36], the IC50 is more than 50000 nM.
Still for that read-out and setting: then `CCn1cc(NC(=O)c2cc(Cl)c(OC)s2)ccc1=O` [Compound 116], with 39300 nM; and `CCn1cc(NC(=O)c2ccn(C)n2)ccc1=O` [Compound 93], with more than 50000 nM; and `O=C(Nc1cc(F)c(=O)n(CCF)c1)c1cnc(-n2ccnc2C(F)(F)F)s1` [Compound 281], with more than 50000 nM.

In a further assay the test system is A549 cells. The assay can be described thus: High-throughput proliferation (HTP) assay for A549 cells (CellTiter-Glo, 7 days). The class given is cell-based. Conditions: Homo sapiens, 168 h, read-out: A549 SMARCA2 IC50. As for the experimental part:
Thawing vials: A549 cells (ATCC #CCL-185™) were thawed from a cryovial containing approximately 1.6×10^6 cells frozen in 70% F12K medium, 20% HI-FBS and 10% DMSO. Cells were thawed by submerging the bottom half of the vial in a 37° C. water bath and gently flicked until almost thawed. The cells were transferred into a 15 mL conical tube containing 9 mL of F12K medium+10% HI-FBS and then centrifuged at 200×g for 4 min before drawing off the media without disturbing the cell pellet in order to remove the DMSO. The cells were resuspended again in 15 mL of F12K fresh complete media+10% HI-FBS and grown up in a T75 flask at 37° C. with 5% CO2 Incubator. Viability was measured to obtain baseline.
Frozen stock vials preparation: The cell culture was transferred to a 50 mL conical tube, spun down to remove medium, and resuspended at 1-2×10^6 cells/mL in complete medium containing 10% DMSO. The culture was then stored for 24 hours at −80 degree C., (with the initial rate of freezing is −1 degree C. per minute in a freezing container), then transferred and stored in liquid nitrogen.
Routine subculture: Sub-confluent cultures (70-80%) were split every 4 days, seeding out at 1-2×10^6 cells/75 cm^2.
Day 0: Assay ready plates were prepared by dispensing 50 nL of compound or DMSO in the appropriate wells of 384-well white CulturPlates using Echo550. Using the Multiflo, A549 cells were plated at 50 μL/well in F12K complete media+10% HI-FBS+1% pen/strep at cell density determined [1,250 cells/mL (62.5 cells/well)] from growth curve.
Treated cells were incubated at 37° C., 5% CO2, relative humidity >90% for 7 days. CellTiter-Glo (CTG) ATP detection reagent was prepared according to manufacturer's specifications. Cell assay plates were removed from the incubator and brought to room temperature (RT). Using the MultiDrop liquid handler, 30 μL of CTG were added per well. Plates were placed on the multidrop dispenser shake for 5 seconds at room temperature (RT). Plates were incubated for 30 minutes in the dark at RT before measuring luminescence using the Envison2104.
Data analysis: Using the DMSO control wells as the 0% inhibition (high signal) control and the 10 μM Doxorubicin control wells as the 100% inhibition (low signal) control, percent inhibition EC50s (inflection point) and IC50 s were calculated for the compound dose responses.
On the technique in general: In ATP-based viability assays light output follows the ATP content of the culture.
For `N#Cc1cc(C(=O)Nc2cc(F)c(=O)n(CC(F)(F)F)c2)sc1Cl` [Compound 207], the IC50 was 892 nM.
On the same count and under the same terms, then `N#Cc1[nH]c(C(=O)Nc2cc(Cl)c(=O)n(CC(F)(F)F)c2)cc1Cl` [Compound 237], with not below 20000 nM; and `N#Cc1cc(C(=O)Nc2ccc(=O)n(CCF)c2)sc1C#N` [Compound 182], with not below 20000 nM; and `CCn1cc(NC(=O)c2cc(Cl)c(C#N)[nH]2)cc(Cl)c1=O` [Compound 236], with not below 20000 nM.
`N#Cc1[nH]c(C(=O)Nc2cc(F)c(=O)n(CC(F)(F)F)c2)cc1Cl` [Compound 242]: the IC50 came to 17400 nM.
On the same count and under the same terms, the value for `O=C(Nc1cc(C(F)(F)F)c(=O)n(CC(F)F)c1)c1cc(F)c(Cl)s1` [Compound 336] was more than 10000 nM; that for `O=C(Nc1cc(F)c(=O)n(CCF)c1)c1cnc([N+](=O)[O-])s1` [Compound 275] was not below 20000 nM.
Regarding `N#Cc1cc(NC(=O)c2cc(F)c(Cl)s2)cn(CC(F)F)c1=O` [Compound 338], the IC50 stood at 3210 nM.

The target in a further assay is FL-SMARCA4 (Homo sapiens, UniProt P51532). Briefly: SMARCA4 ATPase activity assay (ADP-Glo, chicken mononucleosome substrate). The note with it: FL-SMARCA4 IC50, Table 3a.2; SMARCA4 5 nM, ATP 250 uM, mononucleosome 10 nM.
Chain of FL-SMARCA4 (P51532 whole entry): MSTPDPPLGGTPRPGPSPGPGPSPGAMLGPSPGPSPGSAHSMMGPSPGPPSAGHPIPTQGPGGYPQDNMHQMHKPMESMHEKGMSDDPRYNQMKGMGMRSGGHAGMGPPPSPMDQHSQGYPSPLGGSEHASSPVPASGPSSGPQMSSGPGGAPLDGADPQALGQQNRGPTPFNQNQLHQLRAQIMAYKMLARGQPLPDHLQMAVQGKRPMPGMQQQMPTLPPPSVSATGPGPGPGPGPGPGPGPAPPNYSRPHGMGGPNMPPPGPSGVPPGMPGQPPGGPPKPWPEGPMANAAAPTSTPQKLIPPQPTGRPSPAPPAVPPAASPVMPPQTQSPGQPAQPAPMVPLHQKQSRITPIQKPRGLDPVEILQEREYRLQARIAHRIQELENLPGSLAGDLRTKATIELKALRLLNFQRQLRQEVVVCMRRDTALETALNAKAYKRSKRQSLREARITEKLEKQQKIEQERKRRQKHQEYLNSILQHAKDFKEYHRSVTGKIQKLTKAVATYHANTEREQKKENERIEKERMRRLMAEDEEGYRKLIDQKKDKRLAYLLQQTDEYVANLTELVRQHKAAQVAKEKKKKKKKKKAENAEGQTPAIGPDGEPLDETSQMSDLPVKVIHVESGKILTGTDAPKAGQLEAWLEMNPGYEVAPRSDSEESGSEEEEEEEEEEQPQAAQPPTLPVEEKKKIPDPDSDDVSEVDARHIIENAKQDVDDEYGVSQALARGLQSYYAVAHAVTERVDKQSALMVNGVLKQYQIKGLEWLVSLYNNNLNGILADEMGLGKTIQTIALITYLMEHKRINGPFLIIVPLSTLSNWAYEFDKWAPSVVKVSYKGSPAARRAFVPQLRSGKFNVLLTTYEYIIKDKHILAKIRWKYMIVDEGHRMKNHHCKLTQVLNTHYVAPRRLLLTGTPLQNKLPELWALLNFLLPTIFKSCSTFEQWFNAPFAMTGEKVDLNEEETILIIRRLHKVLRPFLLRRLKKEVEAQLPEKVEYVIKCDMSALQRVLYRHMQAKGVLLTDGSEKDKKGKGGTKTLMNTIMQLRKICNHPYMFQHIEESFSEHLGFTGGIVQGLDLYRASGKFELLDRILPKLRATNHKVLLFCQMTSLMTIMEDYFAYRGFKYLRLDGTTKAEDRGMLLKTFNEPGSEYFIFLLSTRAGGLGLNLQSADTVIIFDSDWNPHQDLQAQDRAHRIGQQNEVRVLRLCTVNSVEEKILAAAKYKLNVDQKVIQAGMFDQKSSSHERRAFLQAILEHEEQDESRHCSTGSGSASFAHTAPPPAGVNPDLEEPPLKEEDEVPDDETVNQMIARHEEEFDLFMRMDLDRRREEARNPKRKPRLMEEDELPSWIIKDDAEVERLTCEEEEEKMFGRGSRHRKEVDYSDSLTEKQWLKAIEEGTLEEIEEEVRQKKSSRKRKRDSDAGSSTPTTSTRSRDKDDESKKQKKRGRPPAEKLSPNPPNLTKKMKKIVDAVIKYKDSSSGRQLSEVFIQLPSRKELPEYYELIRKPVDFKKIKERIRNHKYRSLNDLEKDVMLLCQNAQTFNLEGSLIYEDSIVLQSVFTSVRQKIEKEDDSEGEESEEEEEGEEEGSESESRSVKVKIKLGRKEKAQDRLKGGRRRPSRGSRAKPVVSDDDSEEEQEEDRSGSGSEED
The compound `CN1CCN(C(=O)Nc2cc(F)c(=O)n(CCF)c2)CC1=O` [Compound 54a] gave an IC50 of more than 50000 nM.
For `CN1CC(C(=O)Nc2cc(F)c(=O)n(CCF)c2)CC1=O` (stereo not shown) [Compound 51a], the IC50 is more than 50000 nM.
Regarding `CCn1cc(NC(=O)n2ncc3ccccc32)ccc1=O` [Compound 31a], the IC50 is more than 50000 nM.

The assay is the same for the next values; noted with them: FL-SMARCA4 IC50, Table 3b.2; SMARCA4 5 nM, ATP 250 uM, mononucleosome 10 nM.
Regarding `CCn1cc(NC(=O)[C@@H]2CCC[C@@H](Cl)C2)ccc1=O` [Compound 14b], the IC50 was more than 50000 nM.

The assay is the same for the next values; noted with them: FL-SMARCA4 IC50, Table 3.2; ATPase assay, enzyme 5 nM, ATP 250 uM, chicken mononucleosome 10 nM, 30 min preincubation.
In the case of `N#Cc1cc(C(=O)Nc2cc(F)c(=O)n(CC(F)(F)F)c2)sc1Cl` [Compound 207], 342 nM corresponded to half-maximal inhibition (IC50).
`N#Cc1[nH]c(C(=O)Nc2cc(Cl)c(=O)n(CC(F)(F)F)c2)cc1Cl` [Compound 237]: the IC50 was determined as 863 nM.
On the same count and under the same terms, then `N#Cc1cc(C(=O)Nc2ccc(=O)n(CCF)c2)sc1C#N` [Compound 182], with 126 nM; and `CCn1cc(NC(=O)c2cc(Cl)c(C#N)[nH]2)cc(Cl)c1=O` [Compound 236], with 555 nM.
For `N#Cc1[nH]c(C(=O)Nc2cc(F)c(=O)n(CC(F)(F)F)c2)cc1Cl` [Compound 242], the IC50 came to 168 nM.
`O=C(Nc1cc(C(F)(F)F)c(=O)n(CC(F)F)c1)c1cc(F)c(Cl)s1` [Compound 336] gave a half-inhibitory concentration (IC50) of 5870 nM.
For `O=C(Nc1cc(F)c(=O)n(CCF)c1)c1cnc([N+](=O)[O-])s1` [Compound 275], the IC50 was found to be 2100 nM.
Same read-out and setting: the value for `N#Cc1cc(NC(=O)c2cc(F)c(Cl)s2)cn(CC(F)F)c1=O` [Compound 338] was 363 nM; that for `NS(=O)(=O)c1cc(C(=O)Nc2cc(F)c(=O)n(CCF)c2)sc1Cl` [Compound 310] was more than 50000 nM; that for `N#Cc1sc(C(=O)Nc2ccc(=O)n(CCF)c2)cc1Cl` [Compound 132] was 300 nM.
The compound `CCn1cc(NC(=O)c2cc(OC)c(Cl)s2)ccc1=O` [Compound 74] displayed an IC50 of 31500 nM.
With `CCn1cc(NC(=O)c2nc(Br)sc2C)ccc1=O` [Compound 36], the IC50 was more than 50000 nM.
On the same count and under the same terms, the value for `CCn1cc(NC(=O)c2cc(Cl)c(OC)s2)ccc1=O` [Compound 116] was more than 50000 nM.
On the same count and under the same terms, then `CCn1cc(NC(=O)c2ccn(C)n2)ccc1=O` [Compound 93], with more than 50000 nM; and `O=C(Nc1cc(F)c(=O)n(CCF)c1)c1cnc(-n2ccnc2C(F)(F)F)s1` [Compound 281], with more than 50000 nM.

Still in this assay, the particulars now being: FL-SMARCA4 IC>50, Table 3c.2; ATPase assay, enzyme 5 nM, ATP 250 uM, chicken mononucleosome 10 nM, 30 min preincubation.
For the compound `Cn1ccc(-c2cc(NC(=O)c3sc(C(F)(F)F)cc3Cl)cn(CC(F)F)c2=O)n1` [Compound 19c], the IC50 is more than 50000 nM.
Same read-out and setting: the value for `O=C(Nc1cc(F)c(=O)n(CC(F)F)c1)c1cc(C#Cc2ccncc2)cs1` [Compound 23c] was 219 nM.
For the compound `O=C(Nc1cc(F)c(=O)n(CC(F)F)c1)C1CCC(C(F)(F)F)O1` (stereo not shown) [Compound 135c], the IC50 was found to be 35800 nM.
